Legend:
Type in all cases: cell-based, human
[1] = test system: ABCC4; assay: Western blot of ABCC4 in MDA-MB-231 cells after ACSL4 inhibition; settings: Triacsin C 1 uM or rosiglitazone 100 uM, 48 h
From the text: (§1) A) MDA-MB-231 cells were transfected with the pSUPER.retro plasmid containing a shRNA targeted to ACSL4 (shRNA-ACSL4) or an empty plasmid (mock) as previously described ((Maloberti P. M. et al., 2010, supra).
(§2) One month post selection, whole cell extracts were obtained and analyzed by Western blot as previously described using the indicated antibodies. […] Forty-eight hours post-treatment, whole cell extracts were obtained and analyzed by Western blot as previously described using the indicated antibodies. Representative blots (upper panels) and integrated optical density of protein levels (lower panels) quantified and normalized with the corresponding 1-tubulin signal are shown.
(§3) J Biol Chem 2001; 276(27):24667-24673).
(§4) MDA-MB-231 cells were seeded the day before and grown up to 80% confluence. […] The empty vector was used as control. Transfection efficiency was estimated by counting fluorescent cells transfected with the pRc/CMVi plasmid containing the enhanced form of green fluorescent protein [Maloberti et al.; 2010].

[2] = test system: ABCC8; assay: Western blot of ABCC8 in MDA-MB-231 cells after ACSL4 inhibition; settings: Triacsin C 1 uM or rosiglitazone 100 uM, 48 h
From the text: as §1, §2, §3, §4

[3] = test system: MDA-MB-231 cells; assay: BrdU cell proliferation assay, MDA-MB-231 cells; settings: for inhibition of MDA-MB-231 cell proliferation (BrdU): Triacsin C 0.01-0.10 M and/or doxorubicin 0.025 μM or paclitaxel 0.1 μM, 96 h; for dosage used in combination therapy relative to the minimum dose that produces a significant inhibition when administered alone: Triacsin C: in cell culture; for dosage used in combination therapy relative to the minimum dose that produces a significant inhibition when administered alone / amount used in combination relative to the maximum effective dose when applied alone (same inhibitory effect): combination therapy
Description: Subsequently, cell proliferation was measured by BrdU incorporation assay. Data arc presented as inhibition of cell proliferation compared to control cells. White bars indicate single inhibitor treatment while grey bars indicate combined inhibitor treatment.
MDA-MB-231 cells were plated as described in FIG. 3 and then incubated with Triacsin C ([…]) and/or A. doxorubicin (0.025 μM), B. paclitaxel (0.1 μM) for 96 h. Subsequently, cell proliferation was measured by BrdU incorporation assay. Data are presented as inhibition of cell proliferation compared to control cells. White bars indicate single inhibitor treatment while black bars indicate combined inhibitor treatment.
(§5) Cell proliferation assays were measured by the MTT and 5-bromo-2′-deoxyuridine (BrdU) incorporation as previously described (Maloberti P. M. et al., 2010).
(§6) MBA-MB-231 cells were plated at a density of 4000 cells/well in 96-well plates with 10% FBS-supplemented D-MEM medium and allowed to adhere overnight at 37° C. in a humidified, 5% CO2 atmosphere. The medium was then changed to serum-free medium. […] Subsequently, cell proliferation was measured by the bromo-deoxvuridine (BrdU) incorporation assay.
as §6, with “MDA-MB-231” for “MBA-MB-231”, “bromo-deoxyuridine” for “bromo-deoxvuridine”
(§7) MBA-MB-231 cells were plated at a density of 4000 cells/well in 96-well plates with 10% FBS-supplemented D-MEM medium and allowed to adhere overnight at 37° C. in a humidified, 5% CO2 atmosphere. The medium was then changed to serum-free medium. After 24 h, the cells were switched to 10% FBS-supplemented D-MEM medium and incubated with doxorubicin and/or Triacsin C for 96 h. Subsequently, cell proliferation was measured by the bromo-deoxyuridine (BrdU) incorporation assay.
as §7, with “MDA-MB-231 cells” for “MBA-MB-231 cells”, “C. m” for “C. in”, “24 h.” for “24 h,”, “with paclitaxel” for “with doxorubicin”, “the bromo-deoxvuridine” for “the bromo-deoxyuridine”

[4] = test system: ABCG2; assay: Western blot of ABCG2 in MDA-MB-231 cells after ACSL4 inhibition; settings: Triacsin C 1 uM or rosiglitazone 100 uM, 48 h
From the text: as §1, §2, §3, §4

[5] = test system: MCF-7 Tet-Off empty vector cells; assay: BrdU cell proliferation assay, MCF-7 Tet-Off empty vector cells; settings: doxorubicin 0.025, 0.050, 0.100 μM or paclitaxel 0.1, 0.2, 0.5 μM, 96 h
Description: (§8) MCF-7 Tet-Off empty vector and MCF-7 Tet-Off/ACSL4 cells were plated at a density of 4000 cells/well in 96-well plates with 10% FBS-supplemented D-MEM and allowed to adhere overnight at 37° C. in a humidified 5% CO2 atmosphere. The medium was then changed to serum-free medium. After 24 h, the cells were switched to 10% FBS-supplemented D-MEM with A. doxorubicin (0.025-0.100 μM) and B. paclitaxel (0.1-0.5 μM), and with doxycycline (0.025 μM) where indicated. After 48 h, cell proliferation was measured by BrdU incorporation assay. Data are presented as inhibition of cell proliferation compared to control cells.
as §5
Separate experiments were carried out for each one of the tested chemotherapeutic agents. […]
MCF-7 Tet-Off empty vector and MCF-7 Tet-Off/ACSL4 cells were plated at a density of 4000 cells/well in 96-well plates with 10% FBS-supplemented D-MEM medium and allowed to adhere overnight at 37° C. in a humidified, 5% CO2 atmosphere. […] Subsequently, cell proliferation was measured by the bromo-deoxyuridine (BrdU) incorporation assay. […]

[6] = test system: MDA-MB-231 cells; assay: BrdU cell proliferation assay, MDA-MB-231 cells; settings: rosiglitazone 20 μM and/or doxorubicin 0.025 μM or paclitaxel 0.5 μM; 96 h
[7] = test system: MCF-7 Tet-Off/ACSL4 cells; assay: BrdU cell proliferation assay, MCF-7 Tet-Off/ACSL4 cells
Description: as §8, §5
Separate experiments were carried out for each one of the tested chemotherapeutic agents. Each chemotherapeutic agent was first tested alone at the concentrations used, and then in combination with doxycycline, for each of the cell groups: MCF-7 Tet-Off/ACSL4 cells, MCF-7 Tet-Off empty vector cells and doxycycline-treated MCF-7 Tet-Off/ACSL4 cells, the latter is used to specifically override ACSL4 expression.
as §7, with “MCF-7 Tet-Off empty vector and MCF-7 Tet-Off/ACSL4” for “MBA-MB-231”, “at varying (sub-therapeutically effective or non-effective per se) concentrations (0.025, 0.050, 0.100 μM)” for “and/or Triacsin C”
as §7, with “MCF-7 Tet-Off empty vector and MCF-7 Tet-Off/ACSL4” for “MBA-MB-231”, “paclitaxel at varying (sub-therapeutically effective or non-effective per se) concentrations (0.1, 0.2, 0.5 μM)” for “doxorubicin and/or Triacsin C”

[8] = MCF-7 Tet-Off/ACSL4 cells, doxorubicin 0.025, 0.050, 0.100 μM or paclitaxel 0.1, 0.2, 0.5 μM, 96 h
[9] = doxycycline-treated MCF-7 Tet-Off/ACSL4 cells, doxorubicin 0.025-0.100 μM or paclitaxel 0.1-0.5 μM

SMILES	ABCC4 protein levels [1]	ABCC8 protein levels [2]	inhibition of MDA-MB-231 cell proliferation (BrdU) [3]	dosage used in combination therapy relative to the minimum dose that produces a significant inhibition when administered alone [3]	ABCG2 protein levels [4]	inhibition of cell proliferation (BrdU) [5]	inhibition of MDA-MB-231 cell proliferation (BrdU) [6]	inhibition of cell proliferation (BrdU) [7, 8]	inhibition of cell proliferation (BrdU) [7, 9]	amount used in combination relative to the maximum effective dose when applied alone (same inhibitory effect) [3]
CCC/C=C/C/C=C/C=C/C=NNN=O [Triacsin C, N-(((2E,4E,7E)-undeca-2,4,7-trienylidene)amino)nitrous amide]	markedly decreased	markedly decreased	very little effect	5 times lower	markedly decreased					
COc1cccc2c1C(=O)c1c(O)c3c(c(O)c1C2=O)C[C@@](O)(C(=O)CO)C[C@@H]3O[C@H]1C[C@H](N)[C@H](O)[C@H](C)O1 [doxorubicin]			very little effect	2.6 times lower		inhibited proliferation	very little effect	very little or no effect	significantly increased inhibition of cell proliferation	12 times lower
CC(=O)O[C@H]1C(=O)[C@@]2(C)[C@H]([C@H](OC(=O)c3ccccc3)[C@]3(O)C[C@H](OC(=O)[C@H](O)[C@@H](NC(=O)c4ccccc4)c4ccccc4)C(C)=C1C3(C)C)[C@]1(OC(C)=O)CO[C@@H]1C[C@@H]2O [paclitaxel]			very little effect	half		inhibited proliferation	very little effect	little or no effect	significantly increased inhibition of cell proliferation	5 times lower

From patent US20190269629A1, “COMPOSITIONS AND METHODS FOR INHIBITING GROWTH OF ACSL4-OVEREXPRESSING TUMORS” (CONSEJO NACIONAL DE INVESTIGACIONES CIENTÍFICAS Y TÉCNICAS …, priority 2016, published 2019)
